We go through two compounds from US12090149B2, “SMAD3 inhibitors” (Moexa Pharmaceuticals Limited, priority 2018, dated 2024).

Molecules are shown by their SMILES. Read-outs that look alike come from different tables or passages of the source.

In series [1] the test system is TGFβ/Smad Signaling Pathway SBE Reporter—HEK293 Cell Line. Briefly: TGFβ/Smad SBE reporter luciferase assay in HEK293 cells stimulated with human TGFβ1. It is filed as cell-based. To be noted: 4 h compound, then TGFβ1 20 ng/ml ~18 h. As for the experimental part: • 1. TGFβ/Smad Signaling Pathway SBE Reporter—HEK293 Cell Line BPS Bioscience Catalog #: 60653 • 2. Human TGFβ1 (BPS Bioscience #90900-1) • 3. SIS3 (Sigma #S0447): inhibitor of TGFβ pathway. Prepare stock soln. in DMSO • 4. Growth medium: MEM medium (Invitrogen #11095-080)+10% FBS (ATCC #30-2020)+1% non-essential amino acids (Lonza #13-114E)+1 mM Na pyruvate (Lonza #13-115E)+1% Penicillin/Streptomycin (ATCC #30-2300)+400 μg/ml of Geneticin (Invitrogen #11811-031) • 5. Assay medium: MEM medium+0.5% FBS+1% non-essential amino acids+1 mM Na pyruvate+1% Pen/Strep • 6. 96-well tissue culture-treated white clear-bottom assay plate (Corning #3610) • 7. ONE-Step™ Luciferase Assay System (BPS, Cat. #60690)
SBE reporter-HEK293 cells were harvested from culture in growth medium and seeded at a density of ˜10,000 cells per well into a white clear-bottom 96-well microplate in 100 μl of assay medium. The plate containing cells was incubated at 37° C. in a CO2 incubator. 24 h after seeding, cells were washed with 100 μL of assay buffer and treated with three-fold serial dilution of compounds in 50 μl assay medium. […]
After 18 h of incubation, Luciferase assay was performed using ONE-Step™ Luciferase Assay System according to the protocol provided: 50 μl of ONE-Step™ Luciferase reagent was added per well and shook at room temperature for […]. Luminescence was measured using a luminometer.

Series [2] is described as follows: Aqueous solubility assay (shake-flask, LC/MS/MS). It is filed as physicochemical. To be noted: for Conc. Of Sample (ug/mL), aqueous solubility / solubility at 24 h: 25° C., 24 hours, SIS3 hydrochloride salt, MO-00005 free base; for solubility at 24 h: thermodynamic from solid, read-out: Conc. Of Sample (ug/mL), aqueous solubility. As for the experimental part:
Poorly soluble compounds can dramatically reduce productivity in drug discovery and development. Solubility assays involve assessment of kinetic solubility (from DMSO stock solution) using a shake-flask technique in a plate format and LC/MS/MS analysis.
• Analytical Column: YMC ODS-AM S-3 120A, 3×50 mm column with Guard. • Flow Rate: 500 ul/min • Mobil Phase: Isocratic 50% acetonitrile: 50% 20 mM Ammonium Acetate pH 4. Back Pressure: 1400 psi • Column Temperature: Ambient, • Autosampler Setting: Injection Volume: 5 ul, Loop Volume: 100 ul, Tray Temperature: 4° C. • Needle wash: Vial position 100. Needle wash solution: 50% Methanol water
• Component Mass Molarity • Sodium bicarbonate (mw: 84 g/mol) 0.11628 g 0.0461 M • Sodium carbonate (anhydrous) (mw: 106 g/mol) 0.17127 g 0.0539 M • Tris Buffer pH 7.7 (100 mL) • Add 0.363 g of tris to 30 mL water. Check pH at room temperature the pH should be 7.7 with acetic acid. • Acetate Buffer pH 3.6 (30 mL) • Component Mass Molarity • Sodium Acetate (anhydrous) (mw: 82 g/mol) 0.01188 g 0.0048 M • Acetic Acid (mw: 60.05 g/mol) 0.17145 g 0.0952 M (0.17145 g=[…])
Then run all samples at this dilution. • (xi) Run samples in duplicate and estimate aqueous solubility.
As such, it may be expected that the hydrochloride salt will have better solubility in unbuffered aqueous solutions. There the thermodynamic equilibrium dissolution concentrations of both compounds were determined also in buffered solutions at pH 4, 7.7, and 10.4 in addition to unbuffered water.

The next series in a line: Solubility in DMSO. It is filed as physicochemical.

Regarding `COc1cc2c(cc1OC)CN(C(=O)/C=C/c1c(-c3ccccc3)n(C)c3ncccc13)CC2.Cl` [SIS3, reference compound], it took 2.96 µM to reach half-maximal inhibition in series [1] (IC50). Also, the “Conc. Of Sample (ug/mL), aqueous solubility” value in series [2] (pH 4.03 buffer) turned out to be 17.2 µg/mL; in series [2] (pH 7.70 buffer) it was 7.0 µg/mL; in series [2] (unbuffered water) it was 17.7 µg/mL.

In series [1] (Homo sapiens), `COc1cc2c(cc1OC)CN(C(=O)/C=C/c1c(-c3ccccc3)nc3ccccn13)CC2` [Compound 8, (E)-1-(6,7-dimethoxy-3,4-dihydroisoquinolin-2(1H)-yl)-3-(2-phenylimidazo[1,2-a]pyridin-3-yl)prop-2-en-1-one] came in with an IC50 of 3.53 µM. In addition, the “soluble in DMSO” value in “Solubility in DMSO” is listed as “soluble”. Also, the solubility at 24 h came to 598 µg/mL in series [2] (aqueous buffer pH 4.03, aqueous buffer, pH 4.03 buffer); 269 µg/mL in series [2] (aqueous buffer pH 7.70, pH 7.7, aqueous buffer, pH 7.70 buffer); 321 µg/mL in series [2] (unbuffered water). Besides, the “aqueous solubility relative to the solubility of SIS3” value in series [2] (pH of 4.0) turned out to be 35 times.

One may read the IC50 as the midpoint of a concentration-inhibition curve.
